Experimental data published in article PMC10537604, “Development and Assessment of 1,5–Diarylpyrazole/Oxime Hybrids Targeting EGFR and JNK–2 as Antiproliferative Agents: A Comprehensive Study through Synthesis, Molecular Docking, and Evaluation” (Molecules, 2023).

Legend:
[1] = system: human cervical cancer cell line Hela; assay: WST-8 antiproliferative assay, Hela; assay type: cell-based; conditions: WST-8 assay; for inhibition at 100 µM: read-out: Growth Inhibition (GI%) Hela; for IC50: six concentrations 1-100 µM, read-out: IC50 Hela
Experimental: (§1) Compounds 7a–j, 8a–j, 9a–c, and 10a–c were evaluated for in vitro anticancer activities against five different cancer cell lines, namely, human colorectal adenocarcinoma cell lines DLD-1, human cervical cancer cell line Hela, human pancreatic cancer cell line SUIT-2, human myelogenous leukemia cell line K562, and human hepatocellular carcinoma cell line HepG2 using WST-8 assay at concentrations of 100 µM to investigate the growth inhibition percent (GI%) of each compound using daunorubicin as a reference drug. […]. […] So, as a conclusion on the SAR study of those compounds as antiproliferative agents, the oxime moiety potentiated the anticancer activity and electron donating groups on R1 and R2 played an important role on this activity. Moreover, the sulfamoyl moiety on R3 seems to play a potential role in the activity of the prepared compounds (Table 1).
(§2) All selected compounds and daunorubicin were recorded as the minimum concentration required to inhibit half cell growth (IC50) and the results are listed in Table 2.
(§3) Evaluation of anticancer activity was performed according to the standard water-soluble tetrazolium-8 (WST-8) assay at the Faculty of Engineering, Yamagata University, Yonezawa, Japan, using an MTP-310 absorbance microplate reader. The EGFR inhibitory assay was carried out at the Faculty of Engineering, Yamagata University, Yonezawa, Japan, according to the protocol enzyme linked immunosorbent assay (ELISA) kits (Douset sandwich ELISA test, recombinant mouse EGFR). The JNK-2 inhibitory assay was performed at the Faculty of Engineering, Yamagata University, Yonezawa, Japan, according to the protocol of enzyme-linked immunosorbent assay (ELISA), the assay was carried out using the JNK-2 kit (Simple Step ELISA, pT183/Y185, Abcam Company, Cambridge, CB2 0AX, UK). Apoptosis and cell cycle analysis was performed at Faculty of medicine, Yamagata University, Yamagata, Japan, using BD FACS melody. Molecular docking was performed at the Nano Medical Engineering Laboratory, RIKEN Cluster for Pioneering Researchers, RIEKN, Japan, using ICM-Pro 3.8 software (MolSoft L.L.C., San Diego, CA, USA).
(§4) According to the standard water-soluble tetrazolium-8 (WST-8) assay, the current synthesized compounds have been tested for their anticancer activities against different five cancer cell lines; DLD-1, Hela, K562, SUIT-2, and HepG2 and daunorubicin was used as reference drug by the WST-8 assay. The five cells were maintained in a suspension culture, (Dulbecco’s modified eagle medium (DMEM) for SUIT-2, Hela, and HepG2 or PRIM for K562 and DLD), supplemented with 5% FBS (Fetal Bovine Serum) containing 1% of a penicillin-streptomycin (1:1) mixture. A 100 μL aliquot of cells (10,000 cells/mL) was added to a 96 well plate and incubated for 24 h at 37 °C in a humidified incubator containing 5% CO2 in the air. […] Then A 10 μL WST-8 solution (mixture of WST-8 and 1-methoxy PMS) was added to each well and the incubation continued for 3 h. The visible absorbance at 450 nm and 630 nm as the reference wavelength of each well was quantified using an MTP-310 absorbance microplate reader. Daunorubicin was used as a positive control. The results of cytotoxicity were recorded as growth inhibition percentages and as IC50 values.

[2] = system: human hepatocellular carcinoma cell line HepG2; assay: WST-8 antiproliferative assay, HepG2; assay type: cell-based; conditions: HepG2, 100 µM, WST-8 assay, read-out: Growth Inhibition (GI%) HepG2
Experimental: as §1, §2, §3
(§5) According to the standard water-soluble tetrazolium-8 (WST-8) assay, the current synthesized compounds have been tested for their anticancer activities against different five cancer cell lines; DLD-1, Hela, K562, SUIT-2, and HepG2 and daunorubicin was used as reference drug by the WST-8 assay. The five cells were maintained in a suspension culture, (Dulbecco’s modified eagle medium (DMEM) for SUIT-2, Hela, and HepG2 or PRIM for K562 and DLD), supplemented with 5% FBS (Fetal Bovine Serum) containing 1% of a penicillin-streptomycin (1:1) mixture. A 100 μL aliquot of cells (10,000 cells/mL) was added to a 96 well plate and incubated for 24 h at 37 °C in a humidified incubator containing 5% CO2 in the air. After 24 h, a 10 μL aliquot of test compound (concentrations varying in the range of 10–150 µM) was added to each of the 96 wells and incubated for 24 h. Then A 10 μL WST-8 solution (mixture of WST-8 and 1-methoxy PMS) was added to each well and the incubation continued for 3 h. The visible absorbance at 450 nm and 630 nm as the reference wavelength of each well was quantified using an MTP-310 absorbance microplate reader. Daunorubicin was used as a positive control. The results of cytotoxicity were recorded as growth inhibition percentages and as IC50 values.

[3] = system: human pancreatic cancer cell line SUIT-2; assay: WST-8 antiproliferative assay, SUIT-2; assay type: cell-based; conditions: SUIT-2, 100 µM, WST-8 assay, read-out: Growth Inhibition (GI%) SUIT-2
Experimental: as §1, §2, §3, §5

[4] = system: human colorectal adenocarcinoma cell line DLD-1; assay: WST-8 antiproliferative assay, DLD-1; assay type: cell-based; conditions: DLD-1, 100 µM, WST-8 assay, read-out: Growth Inhibition (GI%) DLD-1
Experimental: as §1, §2, §3, §5

[5] = system: human myelogenous leukemia cell line K562; assay: WST-8 antiproliferative assay, K562; assay type: cell-based; conditions: Homo sapiens, K562, WST-8 assay; for inhibition at 100 µM: read-out: Growth Inhibition (GI%) K562
Experimental: as §1, §2, §3, §4

[6] = system: human pancreatic cancer cell line SUIT-2; assay: WST-8 antiproliferative assay, SUIT-2; assay type: cell-based; conditions: WST-8 assay, six concentrations 1-100 µM
[7] = system: human colorectal adenocarcinoma cell line DLD-1; assay: WST-8 antiproliferative assay, DLD-1; assay type: cell-based; conditions: WST-8 assay, six concentrations 1-100 µM

`COc1cc(C(C)=O)ccc1OC(=O)c1cc(-c2ccccc2)n(-c2ccccc2)n1` [Compound 7a, 4–Acetyl–2–methoxyphenyl 1,5–diphenyl–1H–pyrazole–3–carboxylate] gave an inhibition at 100 µM [1] of 55%, an inhibition at 100 µM [2] of 5% and a melting point of 98 to 100 °C. For the same compound, the inhibition at 100 µM [3] was 101%, the inhibition at 100 µM [4] was 0% and the inhibition at 100 µM [5] was 0%.

Compound `COc1ccc(-c2cc(C(=O)Nc3ccc(C(C)=O)cc3)nn2-c2ccc(S(N)(=O)=O)cc2)cc1OC` [Compound 9c, N–(4–Acetylphenyl)–5–(3,4–dimethoxyphenyl)–1–(4–sulfamoylphenyl)–1H–pyrazole–3–carboxamide] has an inhibition at 100 µM [1] of 9%, an inhibition at 100 µM [2] of 22% and a melting point of 81 to 83 °C. The inhibition at 100 µM [3] was 42%, the inhibition at 100 µM [4] was 16.8% and the inhibition at 100 µM [5] was 57%.

For `COc1ccc(-c2cc(C(=O)Oc3ccc(C(C)=O)cc3OC)nn2-c2ccc(S(N)(=O)=O)cc2)cc1OC` [Compound 7j, 4–Acetyl–2–methoxyphenyl–5–(3,4–dimethoxyphenyl) 1–(4–sulfamoylphenyl)–1H–pyrazole–3–carboxylate], the inhibition at 100 µM [1] was 10%, the inhibition at 100 µM [2] was 0% and the melting point was 75 to 78 °C. It also gave an inhibition at 100 µM [3] of 81%, an inhibition at 100 µM [4] of 0.1% and an inhibition at 100 µM [5] of 11%.

In the case of `CC(=O)c1ccc(NC(=O)c2cc(-c3ccccc3)n(-c3ccc(S(N)(=O)=O)cc3)n2)cc1` [Compound 9a, N–(4–Acetylphenyl)–5–phenyl–1–(4–sulfamoylphenyl)–1H–pyrazole–3–carboxamide], the inhibition at 100 µM [1] is reported as 9%, the inhibition at 100 µM [2] is reported as 36% and the melting point is reported as 81 to 83 °C. For the same compound, the inhibition at 100 µM [3] was 60%, the inhibition at 100 µM [4] was 60.7% and the inhibition at 100 µM [5] was 66%.

With `COc1cc(C(C)=O)ccc1OC(=O)c1cc(-c2ccc(Cl)cc2)n(-c2ccccc2)n1` [Compound 7d, 4–Acetyl–2–methoxyphenyl–5–(4–chlorophenyl) 1–phenyl–1H–pyrazole–3–carboxylate] the inhibition at 100 µM [1] was 104%, the IC50 [1] was 15 µM and the IC50 [6] was 43 µM. The IC50 [7] was 81 µM, the inhibition at 100 µM [2] was 31% and the melting point was 85 to 87 °C. The inhibition at 100 µM [3] was 104%, the inhibition at 100 µM [4] was 72% and the inhibition at 100 µM [5] was 50%.

Compound `COc1ccc(-c2cc(C(=O)Oc3ccc(C(C)=O)cc3OC)nn2-c2ccccc2)cc1OC` [Compound 7e, 4–Acetyl–2–methoxyphenyl–5–(3,4–dimethoxyphenyl) 1–phenyl–1H–pyrazole–3–carboxylate] has an inhibition at 100 µM [1] of 73%, an inhibition at 100 µM [2] of 14% and a melting point of 74 to 76 °C. The inhibition at 100 µM [3] was 101%, the inhibition at 100 µM [4] was 59.4% and the inhibition at 100 µM [5] was 0%.

In the case of `COc1cc(C(C)=O)ccc1OC(=O)c1cc(-c2ccc(Cl)cc2)n(-c2ccc(S(N)(=O)=O)cc2)n1` [Compound 7i, 4–Acetyl–2–methoxyphenyl–5–(4–chlorophenyl) 1–(4–sulfamoylphenyl)–1H–pyrazole–3–carboxylate], the inhibition at 100 µM [1] is reported as 101%, the IC50 [1] is reported as 25 µM and the IC50 [6] is reported as 92 µM. It also gave an inhibition at 100 µM [2] of 63%, a melting point of 71 to 74 °C and an inhibition at 100 µM [3] of 101%. The inhibition at 100 µM [4] was 46%, the inhibition at 100 µM [5] was 101% and the IC50 ([5]; six concentrations 1-100 µM, read-out: IC50 K562) was 93 µM.

`COc1ccc(-c2cc(C(=O)Oc3ccc(/C(C)=N/O)cc3OC)nn2-c2ccccc2)cc1` [Compound 8c, (E)–4–(1–(Hydroxyimino)ethyl)–2–methoxyphenyl 5–(4–methoxyphenyl) 1–phenyl–1H–pyrazole–3–carboxylate] gave an inhibition at 100 µM [1] of 78%, an inhibition at 100 µM [2] of 51% and a melting point of 132 to 135 °C. The inhibition at 100 µM [3] was 61%, the inhibition at 100 µM [4] was 0% and the inhibition at 100 µM [5] was 67%.

With `COc1ccc(-c2cc(C(=O)Oc3ccc(/C(C)=N/O)cc3OC)nn2-c2ccc(S(N)(=O)=O)cc2)cc1OC` [Compound 8j, (E)–4–(1–(Hydroxyimino)ethyl)–2–methoxyphenyl 5–(3,4–dimethoxyphenyl)–1–(4–sulfamoylphenyl)–1H–pyrazole–3–carboxylate] the inhibition at 100 µM [1] was 53%, the inhibition at 100 µM [2] was 60% and the melting point was 129 to 131 °C. It also gave an inhibition at 100 µM [3] of 79%, an inhibition at 100 µM [4] of 9.6% and an inhibition at 100 µM [5] of 34%.

`COc1ccc(-c2cc(C(=O)Nc3ccc(C(C)=O)cc3)nn2-c2ccc(S(N)(=O)=O)cc2)cc1` [Compound 9b, N–(4–Acetylphenyl)–5–(4–methoxyphenyl)–1–(4–sulfamoylphenyl)–1H–pyrazole–3–carboxamide] gave an inhibition at 100 µM [1] of 0%, an inhibition at 100 µM [2] of 19% and a melting point of 74 to 76 °C. It also gave an inhibition at 100 µM [3] of 45%, an inhibition at 100 µM [4] of 42.1% and an inhibition at 100 µM [5] of 31%.

Compound `COc1ccc(-c2cc(C(=O)Oc3ccc(C(C)=O)cc3OC)nn2-c2ccc(S(N)(=O)=O)cc2)cc1` [Compound 7h, 4–Acetyl–2–methoxyphenyl 5–(4–methoxyphenyl) 1–(4–sulfamoylphenyl)–1H–pyrazole–3–carboxylate] has an inhibition at 100 µM [1] of 0%, an inhibition at 100 µM [2] of 0% and a melting point of 80 to 83 °C. It also gave an inhibition at 100 µM [3] of 73%, an inhibition at 100 µM [4] of 0% and an inhibition at 100 µM [5] of 0%.

Compound `COc1cc(C(C)=O)ccc1OC(=O)c1cc(-c2ccccc2)n(-c2ccc(S(N)(=O)=O)cc2)n1` [Compound 7f, 4–Acetyl–2–methoxyphenyl–5–phenyl 1–(4–sulfamoylphenyl)–1H–pyrazole–3–carboxylate] has an inhibition at 100 µM [1] of 16%, an inhibition at 100 µM [2] of 10% and a melting point of 69 to 72 °C. For the same compound, the inhibition at 100 µM [3] was 75%, the inhibition at 100 µM [4] was 18.6% and the inhibition at 100 µM [5] was 24%.

In the case of `COc1ccc(-c2cc(C(=O)Oc3ccc(C(C)=O)cc3OC)nn2-c2ccccc2)cc1` [Compound 7c, 4–Acetyl–2–methoxyphenyl–5–(4–methoxyphenyl) 1–phenyl–1H–pyrazole–3–carboxylate], the inhibition at 100 µM [1] is reported as 52%, the inhibition at 100 µM [2] is reported as 0% and the melting point is reported as 69 to 71 °C. The inhibition at 100 µM [3] was 68%, the inhibition at 100 µM [4] was 0% and the inhibition at 100 µM [5] was 48%.
